Values of other authors in patent US20250042860A1, “Process for Chemical Synthesis of Ergothioneine and Methods of Use” (NANJING NUTRABUILDING BIO-TECH CO., LTD., priority 2022, published 2025).

Details: animals and humans, even at high doses

ergothioneine
toxicity or adverse effects associated with ergothioneine administration: no toxicity or adverse effects
